Results as given in patent publication US20090275667A1, “USE OF ALLICIN AS PRESERVATIVE, AS DISINFECTANT, AS ANTIMICROBIAL OR AS BIOCIDAL AGENT” (Stone Island Holdings Ltd, priority 2003, published 2009).

Assays:
Type in all cases: cell-based
[1] = tested on: Paenibacillus larvae subsp. larvae; assay: MIC by broth microdilution, bee pathogens; conditions: range 1000 ppm to 0.25 ppm
Excerpt: (§1) We tested allicia (Allisure™ Liquid) activity against several species of entomopathogenic bacteria (Paenibacillus larvae subsp. larvae, Paenibacillus larvae subsp. pulvifaciens) and fungi (Ascosphaera apis and Ascosphaera aggregata) using broth microdilution method to determine minimum inhibitory concentration (MIC) and the agar diffusion test (Kirby-Bauer) to determine zone of inhibition. Bacterial spores were isolated from the diseased honey bee larval samples. A small aliquot of heat-treated bacterial spores was suspended in 100 μl of phosphate buffered saline-pH 7.2 (PBS) and plated on semi-selective J. Agar medium, containing Nalidixic and Pipemidic acid (Alippi, A M (1995) Detection of Bacillus larvae spores in Argentinian honeys by using a semi-selective medium. Microbiologia 1995 11(3): 343-50; and Govan, V A; Allsopp, M H; Davison, S A (1999) PCR Detection Method for Rapid Identification of Paenibacillus larvae. Applied and Environmental Microbiology 65(5): 2243-2245.
(§2) The plates were incubated at 33° C. in air containing 6% CO2 and 95% RH. The initial species identification was based on morphological, biological and cultural characteristics. The bacterial culture was tested for a catalase reaction (Leboffe, M. J and Pierce, B e (1999) A photographic atlas for the microbiology laboratory. Morton Publishing Company. 254 pp). The bacterial colonies were characterized by shape, margins and color. Gram-positive stained smears (Gram-stain Reagents Kit, EMD Chemicals Inc., NJ) were examined for morphological identification of vegetative cells and spores.
(§3) DNA based PCR identification was performed to corroborate identification of the bacterial species. Bacterial cells from culture plates were added directly to 30 μl of PCR reaction. The PCR primers used in the reaction were based on the 16S RNA sequence to selectively amplify a fragment of 973 by unique to P. larvae (Govan et al., 1999). The PCR products were visualized by 0.8% agarose gel electrophoresis in TAE buffer and ethidium bromide staining. The reference strains of bacteria were used as a control in PCR reactions and were provided by the National Center for Agricultural Research, Peoria, Ill. P. l. larvae (NRRL B-3560, B-2605) and P. l. palvifaciens (NRRL B-3688, B-3685, B-3689, NRS-1687, P. alvei B383).
(§4) Positive controls contained the antibiotic Tylosin (Tylan® 50, Elanco Animal Health Inc., IN) and negative controls contained no antibiotics. […] The optical densities of cultures (OD 600) were recorded 24 h and 48 h post inoculation, depending on the growth rate of the microbial species. […] Minimum bactericidal concentration values (NBC) were determined for allicin by plating out 100 μl of bacterial cultures derived from the MIC assay. […]

[2] = tested on: Paenibacillus larvae subsp. pulvifaciens; assay: MIC by broth microdilution, bee pathogens; conditions: range 1000 ppm to 0.25 ppm
Excerpt: as §1, §2, §3, §4

Ascosphaera aggregata = assay: Disk diffusion test (Kirby-Bauer), zone of inhibition; conditions: 6 mm paper disc containing 5 μg of tylosin
Description: (§5) Allicin (Allisure™ Liquid) was tested against bacterial and fungal pathogens using a standard disk diffusion method (per Norrell & Messley). The aliquots of bacterial or fungal spores (100 μl of approximately 10^8-10^9 spores/ml) were plated on Mueller-Hinton agar medium, 4.0 mm depth. The 6 mm paper discs containing 250 μg of allicin or 5 μg of tylosin (positive control) were placed in the center of each plate. Plates were incubated at 33° C. and 6% CO2 and a zone of inhibition was measured 24 h, 48 h or 76 h post inoculation depending on the microbial species. All experiments were replicated at least three times.

Ascosphaera apis = assay: as above; conditions: 6 mm paper disc containing 5 μg of tylosin
Description: as §5

[3] = tested on: Paenibacillus larvae subsp. larvae; assay: as above; conditions: 6 mm paper disc containing 5 μg of tylosin
Description: as §5

[4] = tested on: Paenibacillus larvae subsp. pulvifaciens; assay: as above; conditions: 6 mm paper disc containing 5 μg of tylosin
Description: as §5

CC[C@H]1OC(=O)C[C@@H](O)[C@H](C)[C@@H](O[C@@H]2O[C@H](C)[C@@H](O[C@H]3C[C@@](C)(O)[C@@H](O)[C@H](C)O3)[C@H](N(C)C)[C@H]2O)[C@@H](CC=O)C[C@@H](C)C(=O)/C=C/C(C)=C/[C@@H]1CO[C@@H]1O[C@H](C)[C@@H](O)[C@@H](OC)[C@H]1OC [tylosin, reference compound]
MIC [1]: < 0.25 µg/mL | MIC [2]: < 0.25 µg/mL | zone of inhibition (Ascosphaera aggregata): 0.0 mm | zone of inhibition (Ascosphaera apis): 0.0 mm | growth inhibition in agar diffusion test [3]: completely inhibited | zone of inhibition [4]: 14-16 mm
